From patent US20100036088A1, “Selective poly-N-substituted glycine antibiotics” (priority 2008, published 2010)
Numbered stars: 1 amine (or outer) side, 2 acyl side, 3 side chain; on linkers, the order of the positions; unused ones are H or OH. Square brackets hold non-standard residues; d marks the D form. Peptide text beside a SMILES is read from it. Gly(N-CH2CH2-imidazol-4-yl) = O=C(O)CNCCc1c[nH]cn1; X3 = C[C@@H](c1ccc2ccccc2c1)N(CC(=O)[*:2])[*:1]; N(1S-Me-propyl)Gly = CC[C@H](C)NCC(=O)O; X1 = CC(C)[C@H](C)N(CC(=O)[*:2])[*:1]; Nspe = C[C@H](NCC(=O)O)c1ccccc1; Nlys = NCCCCNCC(=O)O

Key:
human erythrocytes = assay: Hemolysis assay; assay type: cell-based; details: for HD50 (50% hemolytic dose) / HD10 (10% hemolytic dose): red cells of human, 1 h
Procedure: Hemolysis assays. Erythrocytes were isolated from freshly drawn, heparanized human blood and resuspended to 20 vol % in PBS (pH 7.4). In a 96-well microtiter plate, 100 μL erythrocyte suspension was added to 100 μL peptoid solution in PBS (prepared by 1:2 serial dilutions), or 100 μL PBS in the case of negative controls. 100% hemolysis wells contained 100 μL blood cell suspension with 100 μL 0.2 vol % Triton X-100. The plate was incubated for 1 h at 37° C., then each well was diluted with 150 μL PBS. The plate was then centrifuged at 1200 g for 15 min, 100 μL of the supernatant from each well transferred to a fresh microtiter plate, and A350 measured.
Hemolysis assays. Erythrocytes were isolated from freshly drawn, heparanized human blood and resuspended in PBS (pH 7.4) to make a 20% volume suspension. Peptoid solutions were prepared by serial dilution (2:1) in a 96-well microtiter plate. For test wells, 100 μL of erythrocyte suspension was added to 100 μL of peptoid solution in PBS; PBS without peptoid was used as the negative control and 0.2 vol % Triton X-100 as the positive control that indicates 100% hemolysis. After 1 hour incubation at 37° C., each well was diluted with 150 μL PBS. Plates were then centrifuged at 1,200×g for 15 minutes to pellet the cells. 30 μL of the supernatant from each well were transferred to the corresponding well of a second 96-well plate that contains 70 μL PBS.

B. subtilis (ATCC 6633) = assay type: cell-based; details: ATCC 6633
Procedure: (§1) Whereas the preceding generation of molecules was designed to elucidate structure function relationships of specific molecular parameters (chirality, length, hydrophobicity, etc.), another generation compounds were designed explicitly to explore effects on selectivity. Antimicrobial activity of these compounds was tested against bacterial strains E. coli (ATTC 35218) and B. subtilis (ATTC 6633) in cation-adjusted MHB using the microdilution protocols previously described. The sequences, antimicrobial activities, hemolytic activities, and metabolic inhibitory concentrations against NIH 3T3 mouse fibroblast cells are summarized in Table 3 and the rationale of their design is described below.
(§2) The potencies of all compounds were determined against representative Gram-negative (E. coli ATCC 35218) and Gram-positive (B. subtilis ATCC 6633) biosafety level 1 (BSL1) organisms. In addition to hemolytic activity, the conventional measure of toxicity to mammalian cells, the effect of each ampetoid on NIH 3T3 mouse fibroblast cells was determined using the MTS tetrazolium salt-based calorimetric assay. While hemolysis measures the degree to which erythrocytes are lysed, the MTS assay indirectly quantifies the extent to which cellular metabolic activity is inhibited.
(§3) Screening antibacterial assays. MICs were determined in 96-well microtiter plates in accordance with CLSI M7-A6 protocols. Peptoid solutions with 50 μL total volume were prepared using 2:1 serial dilutions. 50 μL of bacteria inoculum (1×10^6 CFU/mL) prepared in cation-adjusted Mueller-Hinton broth (CAMHB) was added to test wells. Control wells contained 100 μL MHB (no growth) or 50 μL inoculums with 50 μL MHB with no peptoid. […] Reported values were reproducible over three experiments, each containing two parallel trials.

E. coli (ATCC 35218) = assay type: cell-based; details: ATCC 35218
Procedure: as §1, §2, §3

[1] = MTS assay, metabolic inhibition; assay type: cell-based, mouse
Procedure: as §2
MTS assays. NIH/3T3 cells (ATCC Corporation) cultured at 37° C. and 5% CO2 in complete Dulbecco's modified eagle's media (CDMEM) supplemented with 1% sodium pyruvate, 1% penicillin-streptomycin, 1.5 g/L NaHCO3, and 10% fetal bovine serum. Cells were seeded at a density of 5,000 cells per well for NIH/3T3 cells in 96-well plates (100 μl total volume). A peptoid solution plate (100 μL total volume per well) was prepared by serial dilution of aqueous peptoid stock solution in Hank's balanced salt solution (HBSS) media. The day-old cell monolayers were washed with HBSS and media was replaced with 100 μL HBSS. The contents of the peptoid solution plate were transferred onto corresponding wells of the cell monolayer plate, and 40 μL MTS reagent (Promega, Inc.) was added to each well. After incubating for 3 hours at 37° C., absorbance at 490 nm was determined. […] The average of six replicates is reported.

IC50 [1] | SMILES | HD50 (50% hemolytic dose) (human erythrocytes) | HD10 (10% hemolytic dose) (human erythrocytes) | HD10 (human erythrocytes) | HD50 (human erythrocytes) | further results
 | C[C@@H](c1ccccc1)N(CC(N)=O)C(=O)CN(C(=O)CN(CCC(=O)O)C(=O)CN(C(=O)CN(C(=O)CN(CCC(=O)O)C(=O)CN(C(=O)CN(C(=O)CN(CCC(=O)O)C(=O)CN(C(=O)CN(C(=O)CNCCC(=O)O)[C@@H](C)c1ccccc1)[C@@H](C)c1ccccc1)[C@@H](C)c1ccccc1)[C@@H](C)c1ccccc1)[C@@H](C)c1ccccc1)[C@@H](C)c1ccccc1)[C@@H](C)c1ccccc1 [1-Nglu1,4,7,10] | >110/>110 μM |  |  |  | 
 | C[C@@H](c1ccccc1)N(CC(N)=O)C(=O)CN(C(=O)CN(CCC(=O)O)C(=O)CN(C(=O)CN(C(=O)CN(CCCCN)C(=O)CN(C(=O)CN(C(=O)CN(CCC(=O)O)C(=O)CN(C(=O)CN(C(=O)CNCCCCN)[C@@H](C)c1ccccc1)[C@@H](C)c1ccccc1)[C@@H](C)c1ccccc1)[C@@H](C)c1ccccc1)[C@@H](C)c1ccccc1)[C@@H](C)c1ccccc1)[C@@H](C)c1ccccc1 [1-Nglu4,10] | 40 µM | 19 µM |  |  | 
 | C[C@@H](c1ccccc1)N(CC(=O)N(CCc1c[nH]cn1)CC(=O)N(CCCCN)CC(=O)N(CC(=O)N(CCc1c[nH]cn1)CC(=O)N(CCCCN)CC(=O)N(CC(=O)N(CCc1c[nH]cn1)CC(=O)N(CCCCN)CC(=O)N(CC(=O)N(CCc1c[nH]cn1)CC(N)=O)[C@@H](C)c1ccccc1)[C@@H](C)c1ccccc1)[C@@H](C)c1ccccc1)C(=O)CNCCCCN [1-Nhis3,6,9,12] (H-[Nlys][Nspe][Gly(N-CH2CH2-imidazol-4-yl)][Nlys][Nspe][Gly(N-CH2CH2-imidazol-4-yl)][Nlys][Nspe][Gly(N-CH2CH2-imidazol-4-yl)][Nlys][Nspe][Gly(N-CH2CH2-imidazol-4-yl)]-NH2) |  |  | >200/>200 μM | >200/>200 μM | B. subtilis MIC (B. subtilis (ATCC 6633)): 100 µM; E. coli MIC (E. coli (ATCC 35218)): >100 µM
19 µM | CC(C)[C@H](C)N(CC(=O)N(CCCCN)CC(=O)N(CC(=O)N(CC(=O)N(CCCCN)CC(=O)N(CC(=O)N(CC(=O)N(CCCCN)CC(=O)N(CC(=O)N(CC(N)=O)[C@@H](C)c1ccccc1)[C@@H](C)c1ccccc1)[C@@H](C)C(C)C)[C@@H](C)C(C)C)[C@@H](C)c1ccccc1)[C@@H](C)c1ccccc1)C(=O)CN(C(=O)CNCCCCN)[C@@H](C)C(C)C [1-Nsdp2,3,8,9, H-(Nlys-Nsdp-Nsdp-Nlys-Nspe-Nspe)2-NH2] (H-[Nlys][X1][X1][Nlys][Nspe][Nspe][Nlys][X1][X1][Nlys][Nspe][Nspe]-NH2) |  |  | 77 µM | > 200 µM | 
15 µM | C[C@@H](c1ccccc1)N(CC(N)=O)C(=O)CN(Cc1ccccc1)C(=O)CN(CCCCN)C(=O)CN(Cc1ccccc1)C(=O)CN(Cc1ccccc1)C(=O)CN(CCCCN)C(=O)CN(Cc1ccccc1)C(=O)CN(Cc1ccccc1)C(=O)CN(CCCCN)C(=O)CN(Cc1ccccc1)C(=O)CN(Cc1ccccc1)C(=O)CNCCCCN [1ach-Nspe12, H-(Nlys-Npm-Npm)3-(Nlys-Npm-Nspe)-NH2] |  |  | 164 µM | > 200 µM | B. subtilis MIC (B. subtilis (ATCC 6633)): 1.6 µM
 | C[C@@H](c1ccccc1)N(CC(N)=O)C(=O)CN(C(=O)CN(C(=O)CN(C(=O)CN(C(=O)CN(C(=O)CN(C(=O)CN(C(=O)CN(CCCCN)C(=O)CN(CCCCN)C(=O)CN(CCCCN)C(=O)CNCCCCN)[C@@H](C)c1ccccc1)[C@@H](C)c1ccccc1)[C@@H](C)c1ccccc1)[C@@H](C)c1ccccc1)[C@@H](C)c1ccccc1)[C@@H](C)c1ccccc1)[C@@H](C)c1ccccc1 [1block, H-(Nlys)4-(Nspe)8-NH2] | 73 µM | 18 µM |  |  | 
8.5 µM | C[C@H](NCC(=O)N(CC(=O)N(CCCCN)CC(=O)N(CC(=O)N(CCCCN)CC(=O)N(CC(=O)N(CCCCN)CC(=O)N(CC(=O)N(CC(=O)N(CC(=O)N(CC(=O)N(CCCCN)CC(N)=O)[C@@H](C)c1ccccc1)[C@@H](C)c1ccccc1)[C@@H](C)c1ccccc1)[C@@H](C)c1ccccc1)[C@@H](C)c1ccccc1)[C@@H](C)c1ccccc1)[C@@H](C)c1ccccc1)c1ccccc1 [1scr, H-(Nspe)2-(Nlys-Nspe)3-(Nspe)3-Nlys-NH2] (H-[Nspe][Nspe][Nlys][Nspe][Nlys][Nspe][Nlys][Nspe][Nspe][Nspe][Nspe][Nlys]-NH2) |  |  | 64 µM | > 200 µM | 
 | CC[C@H](C)N(CC(=O)N(CC(N)=O)[C@@H](C)c1ccc2ccccc2c1)C(=O)CN(CCCCN)C(=O)CN(C(=O)CN(C(=O)CN(CCCCN)C(=O)CN(C(=O)CN(C(=O)CN(CCCCN)C(=O)CN(C(=O)CN(C(=O)CNCCCCN)[C@@H](C)CC)[C@@H](C)c1ccccc1)[C@@H](C)CC)[C@@H](C)c1ccc2ccccc2c1)[C@@H](C)CC)[C@@H](C)c1ccccc1 [2-Nsna6,12] (H-[Nlys][N(1S-Me-propyl)Gly][Nspe][Nlys][N(1S-Me-propyl)Gly][X3][Nlys][N(1S-Me-propyl)Gly][Nspe][Nlys][N(1S-Me-propyl)Gly][X3]-NH2) | > 120 µM | 55 µM |  |  | 
 | CC[C@H](C)N(CC(=O)N(CC(=O)N(CC(=O)N(CCCCN)CC(N)=O)[C@@H](C)c1ccccc1)[C@@H](C)CC)C(=O)CN(CCCCN)C(=O)CN(C(=O)CN(CCCCN)C(=O)CN(C(=O)CN(C(=O)CN(C(=O)CN(C(=O)CNCCCCN)[C@@H](C)CC)[C@@H](C)c1ccccc1)[C@@H](C)CC)[C@@H](C)c1ccccc1)[C@@H](C)c1ccccc1 [2scrambled, H-Nlys-Nssb-Nspe-Nssb-Nspe-Nlys-Nspe-Nlys-Nssb-Nssb-Nspe-Nlys-NH2] (H-[Nlys][N(1S-Me-propyl)Gly][Nspe][N(1S-Me-propyl)Gly][Nspe][Nlys][Nspe][Nlys][N(1S-Me-propyl)Gly][N(1S-Me-propyl)Gly][Nspe][Nlys]-NH2) | >120/>120 μM | >120/>120 μM |  |  | no hemolysis up to (human erythrocytes): > 120 µM
11 µM | C[C@@H](c1ccccc1)N(CC(N)=O)C(=O)CN(CCCCN)C(=O)CN(C(=O)CN(C(=O)CN(CCCCN)C(=O)CN(C(=O)CN(C(=O)CN(CCCCN)C(=O)CN(C(=O)CN(C(=O)CNCCCCN)[C@@H](C)c1ccccc1)[C@@H](C)c1ccccc1)[C@@H](C)c1ccccc1)[C@@H](C)c1ccccc1)[C@@H](C)c1ccccc1)[C@@H](C)c1ccccc1 [111mer, H-(Nlys-Nspe-Nspe)3-Nlys-Nspe-NH2] (H-[Nlys][Nspe][Nspe][Nlys][Nspe][Nspe][Nlys][Nspe][Nspe][Nlys][Nspe]-NH2) |  |  | 103 µM | > 200 µM | 
 | CC[C@H](C)N(CC(=O)N(CC(N)=O)[C@@H](C)c1ccccc1)C(=O)CN(CCCCN)C(=O)CN(C(=O)CN(C(=O)CN(CCCCN)C(=O)CN(C(=O)CN(C(=O)CN(CCCCN)C(=O)CN(C(=O)CN(C(=O)CNCCCCN)[C@@H](C)CC)[C@@H](C)c1ccccc1)[C@@H](C)CC)[C@@H](C)c1ccccc1)[C@@H](C)CC)[C@@H](C)c1ccccc1 [compound 2, H-(Nlys-Nssb-Nspe)4-NH2] (H-[Nlys][N(1S-Me-propyl)Gly][Nspe][Nlys][N(1S-Me-propyl)Gly][Nspe][Nlys][N(1S-Me-propyl)Gly][Nspe][Nlys][N(1S-Me-propyl)Gly][Nspe]-NH2) | >120/>120 μM | >120/>120 μM |  |  | 
